Where a name gives a salt, the structure may show the parent alone.

The fold induction is the signal under treatment as a multiple of the control signal. Read a low fold induction as little rise in signal.

One assay concerns HMOX1. The experiment in a line: HMOX1 Protein Assay (immunostaining of HO-1 in NHLF cells, GE InCell 1000). The settings on record: Homo sapiens, fold change above DMSO treated cells, 3 μM compound (asterisk), 16 h. The assay is classed as cell-based. Put shortly:
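Fold induction of HO-1 over vehicle, normally at 5 μM compound (asterisk marks 3 μM), in 0.8% DMSO medium. Normal human lung fibroblasts were treated 16 h, then paraformaldehyde-fixed, anti-HO-1/Alexa 488 stained with Hoechst, and read by high-content imaging.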
In the case of `C[C@H](NC(=O)c1ccc2c(c1)nc(Nc1nc3ccc(C(F)(F)F)cc3s1)n2C)C(=O)N1CCOCC1` [Example 466, 1-Methyl-2-(6-trifluoromethyl-benzothiazol-2-ylamino)-1H-benzoimidazole-5-carboxylic acid ((S)-1-methyl-2-morpholin-4-yl-2-oxo-ethyl)-amide], the fold induction at 3 µM stood at 22.4.
On the same count and under the same terms, as for `Cn1c(Nc2nc3ccc(Cl)cc3s2)nc2cc(C(=O)NCCN3CCOCC3)ccc21` [Example 340, 2-(6-Chloro-benzothiazol-2-ylamino)-1-methyl-1H-benzoimidazole-5-carboxylic acid (2-morpholin-4-yl-ethyl)-amide], the figure is 14.4; as for `Cn1c(Nc2nc3ccc(OC(F)(F)F)cc3s2)nc2cc(C(=O)NCCCN3CCOCC3)ccc21` [Example 358, 1-Methyl-2-(6-trifluoromethoxy-benzothiazol-2-ylamino)-1H-benzoimidazole-5-carboxylic acid (3-morpholin-4-yl-propyl)-amide], 11.8.
On the same count and under the same terms, under `Cn1c(Nc2nc3ccc(OC(F)(F)F)cc3s2)nc2cc(C(=O)NCCN3CCS(=O)(=O)CC3)ccc21` [Example 342, 1-Methyl-2-(6-trifluoromethoxy-benzothiazol-2-ylamino)-1H-benzoimidazole-5-carboxylic acid [2-(1,1-dioxo-thiomorpholin-4-yl)-ethyl]-amide] stands 36.8.

Still in this assay, the particulars now being: Homo sapiens, fold change above DMSO treated cells, 5 μM compound, 16 h.
`CN(C)N(C)C(=O)c1ccc2c(c1)nc(Nc1nc3ccc(OC(F)(F)F)cc3s1)n2C` [Example 106, 1-Methyl-2-(6-trifluoromethoxy-benzothiazol-2-ylamino)-1H-benzimidazole-5-carboxylic acid trimethylhydrazide] showed a fold induction at 5 µM of 23.8.
Still for that read-out and setting: as for `Cn1c(Nc2nc3ccc(OC(F)(F)F)cc3s2)nc2cc(C(=O)NCCOCCO)cnc21` [Example 238, 3-Methyl-2-(6-trifluoromethoxy-benzothiazol-2-ylamino)-3H-imidazo[4,5-b]pyridine-6-carboxylic acid [2-(2-hydroxy-ethoxy)-ethyl]-amide], the figure is 33.
Still for that read-out and setting: under `CN(C)CC(=O)N1CCC[C@H](NC(=O)c2ccc3c(c2)nc(Nc2nc4ccc(Cl)cc4s2)n3C)C1` [Example 312, 2-(6-Chloro-benzothiazol-2-ylamino)-1-methyl-1H-benzoimidazole-5-carboxylic acid [(S)-1-(2-dimethylamino-acetyl)-piperidin-3-yl]-amide] stands 68.8; under `Cn1c(Nc2nc3ccc(OC(F)(F)F)cc3s2)nc2cc(C(=O)NC3CCNCC3)ccc21` [Example 93, 1-Methyl-2-(6-trifluoromethoxy-benzothiazol-2-ylamino)-1H-benzoimidazole-5-carboxylic acid piperidin-4-ylamide hydrochloride], 11.3; under `COCCn1c(Nc2nc3ccc(Cl)cc3s2)nc2cc(C(=O)NCC(=O)N3CCC(CO)CC3)ccc21` [Example 443, 2-(6-Chloro-benzothiazol-2-ylamino)-1-(2-methoxy-ethyl)-1H-benzoimidazole-5-carboxylic acid [2-(4-hydroxymethyl-piperidin-1-yl)-2-oxo-ethyl]-amide], 39.8.
The same measure, in the same setting: under `Cn1c(Nc2nc3ccc(OC(F)(F)F)cc3s2)nc2cc(C(=O)N[C@@H]3[C@@H](O)[C@H](O)[C@@H](CO)O[C@@H]3O)ccc21` [Example 283, 1-Methyl-2-(6-trifluoromethoxy-benzothiazol-2-ylamino)-1H-benzoimidazole-5-carboxylic acid ((2S,3R,4R,5S,6R)-2,4,5-trihydroxy-6-hydroxymethyl-tetrahydro-pyran-3-yl)-amide] stands 30.2; under `CNC(=O)c1ccc2c(c1)nc(Nc1nc3ccc(C(F)(F)F)cc3s1)n2C` [Example 84, 1-Methyl-2-(6-trifluoromethyl-benzothiazol-2-ylamino)-1H-benzoimidazole-5-carboxylic acid methylamide], 19; under `CN(C)C1CCN(C(=O)CNC(=O)c2ccc3c(c2)nc(Nc2nc4ccc(OC(F)(F)F)cc4s2)n3C)CC1` [Example 455, 1-Methyl-2-(6-trifluoromethoxy-benzothiazol-2-ylamino)-1H-benzoimidazole-5-carboxylic acid [2-(4-dimethylamino-piperidin-1-yl)-2-oxo-ethyl]-amide], 80.4.
On to `COC(=O)c1ccc2c(c1)nc(Nc1nc3ccc(S(C)(=O)=O)cc3s1)n2C` [Example 113, 2-(6-Methanesulfonyl-benzothiazol-2-ylamino)-1-methyl-1H-benzoimidazole-5-carboxylic acid methyl ester], for which the fold induction at 5 µM came out at 27.6.
Still for that read-out and setting: as for `Cn1c(Nc2nc3ccc(OC(F)(F)F)cc3s2)nc2cc(C(=O)NCCN3CCOCC3)c(F)cc21` [Example 59, 6-Fluoro-1-methyl-2-(6-trifluoromethoxy-benzothiazol-2-ylamino)-1H-benzoimidazole-5-carboxylic acid (2-morpholin-4-yl-ethyl)-amide], the figure is 49.8.
Same read-out and setting: under `COCCNC(=O)c1ccc2c(c1)nc(Nc1nc3cc(F)c(F)cc3s1)n2C` [Example 37, 2-(5,6-Difluoro-benzothiazol-2-ylamino)-1-methyl-1H-benzoimidazole-5-carboxylic acid (2-methoxy-ethyl)-amide] stands 16.4; under `Cn1c(Nc2nc3ccc(OC(F)(F)F)cc3s2)nc2cc(C(=O)NCCN)ccc21` [Example 104, 1-Methyl-2-(6-trifluoromethoxy-benzothiazol-2-ylamino)-1H-benzoimidazole-5-carboxylic acid (2-amino-ethyl)-amide hydrochloride], 16.3; under `Cn1c(Nc2nc3ccc(Cl)cc3s2)nc2cc(C(=O)N[C@@H]3CCCNC3)ccc21` [Example 309, 2-(6-Chloro-benzothiazol-2-ylamino)-1-methyl-1H-benzoimidazole-5-carboxylic acid (R)-piperidin-3-ylamide hydrochloride], 21.5.
The same measure, in the same setting: under `Cn1c(Nc2nc3cc(F)ccc3s2)nc2cc(C(=O)O)ccc21` [Example 117, 2-(5-Fluoro-benzothiazol-2-ylamino)-1-methyl-1H-benzimidazole-5-carboxylic acid] stands 28.8; under `C[C@@H](O)CNC(=O)CNC(=O)c1ccc2c(c1)nc(Nc1nc3ccc(Cl)cc3s1)n2C` [Example 382, 2-(6-Chloro-benzothiazol-2-ylamino)-1-methyl-1H-benzoimidazole-5-carboxylic acid [((R)-2-hydroxy-propylcarbamoyl)-methyl]-amide], 20.6.
Consider `CN(C)C(=O)CNC(=O)c1cc2nc(Nc3nc4ccc(OC(F)(F)F)cc4s3)n(C)c2cc1F` [Example 58, 6-Fluoro-1-methyl-2-(6-trifluoromethoxy-benzothiazol-2-ylamino)-1H-benzoimidazole-5-carboxylic acid dimethylcarbamoylmethyl-amide], for which the fold induction at 5 µM is 32.8.
On to `Cn1c(Nc2nc3ccc(Cl)cc3s2)nc2cc(C(=O)NCCN3CCC(F)(F)CC3)ccc21` [Example 335, 2-(6-Chloro-benzothiazol-2-ylamino)-1-methyl-1H-benzoimidazole-5-carboxylic acid [2-(4,4-difluoro-piperidin-1-yl)-ethyl]-amide], for which the fold induction at 5 µM was 18.9.
For the compound `COC(=O)c1ccc2c(c1)nc(Nc1nc3ccc(C(F)(F)F)cc3s1)n2C` [Example 23, 1-Methyl-2-(6-trifluoromethyl-benzothiazol-2-ylamino)-1H-benzoimidazole-5-carboxylic acid methyl ester], the fold induction at 5 µM is 4.11.
The same measure, in the same setting: as for `Cn1c(Nc2nc3ccc(OC(F)(F)F)cc3s2)nc2cc(C(=O)NCCCCO)c(F)cc21` [Example 222, 6-Fluoro-1-methyl-2-(6-trifluoromethoxy-benzothiazol-2-ylamino)-1H-benzoimidazole-5-carboxylic acid (4-hydroxy-butyl)-amide], the figure is 49.9; as for `COCCn1c(Nc2nc3ccc(Cl)cc3s2)nc2cc(C(=O)NCC(=O)N3CCC(O)CC3)ccc21` [Example 438, 2-(6-Chloro-benzothiazol-2-ylamino)-1-(2-methoxy-ethyl)-1H-benzoimidazole-5-carboxylic acid [2-(4-hydroxy-piperidin-1-yl)-2-oxo-ethyl]-amide], 25.9.
Same read-out and setting: under `COc1cc2c(cc1C(=O)O)nc(Nc1nc3ccc(OC(F)(F)F)cc3s1)n2C` [Example 62, 6-Methoxy-1-methyl-2-(6-trifluoromethoxy-benzothiazol-2-ylamino)-1H-benzoimidazole-5-carboxylic acid] stands 20.3; under `Cn1c(Nc2nc3ccc(OC(F)(F)F)cc3s2)nc2cc(C(=O)NCCOCC(N)=O)ccc21` [Example 267, 1-Methyl-2-(6-trifluoromethoxy-benzothiazol-2-ylamino)-1H-benzoimidazole-5-carboxylic acid (2-carbamoylmethoxy-ethyl)-amide], 58.8; under `Cn1c(Nc2nc3ccc(OC(F)(F)F)cc3s2)nc2cc(C(=O)NCCN3CCCC3=O)ccc21` [Example 329, 1-Methyl-2-(6-trifluoromethoxy-benzothiazol-2-ylamino)-1H-benzoimidazole-5-carboxylic acid [2-(2-oxo-pyrrolidin-1-yl)-ethyl]-amide], 52.2.
In the case of `CN1CC[C@H](NC(=O)c2ccc3c(c2)nc(Nc2nc4ccc(Cl)cc4s2)n3C)C1` [Example 317, 2-(6-Chloro-benzothiazol-2-ylamino)-1-methyl-1H-benzoimidazole-5-carboxylic acid ((S)-1-methyl-pyrrolidin-3-yl)amide], the fold induction at 5 µM was 16.3.
Same read-out and setting: as for `Cn1c(Nc2nc3ccc(OC(F)(F)F)cc3s2)nc2cc(C(=O)NC3CCN(C(=O)OC(C)(C)C)CC3)ccc21` [Example 92, 4-{[1-Methyl-2-(6-trifluoromethoxy-benzothiazol-2-ylamino)-1H-benzoimidazole-5-carbonyl]-amino}-piperidine-1-carboxylic acid tert-butyl ester], the figure is 3.4.
